Values after ≈ are worked out from the molar mass of the structure shown. “Also recorded” adds a separate entry of the source.
Columns and labels:
[1] = system: Bacillus megaterium M1-2.; assay: MIC against bacteria isolated from acne lesions, Table 2; format: cell-based; details: Priestia megaterium, M12., read-out: Minimum Inhibitory Concentration
Procedure: (§1) MIC of besifloxacin and other antibiotics molecules were determined by micro broth dilution method as per the Clinical and Laboratory Standards Institute (CLSI) guideline. MIC assay is the determinant of the inherent anti-microbial potency of a particular molecule. For preparing inoculum, bacterial strains were cultured in Brain Heart Infusion Agar (BHIA) at 37° C. for 24 hours. […] For bacterial inoculum, bacterial culture turbidity was adjusted to 0.1 OD at 600 nm in UV-Visual spectrophotometer (approximately 1.5×10^8 cells/ml) and further diluted (100 times with sterile BHI broth). Diluted bacterial suspension (100 μl) was added to each well except sterility control wells (column 12 of 96 well plate). Column 11 of 96 well plate was used as growth control and vehicle control. The plates were incubated at 37° C. for 24 h. The MIC of the test compounds were determined by observing the lowest concentration of test compound that prevented the visual bacterial growth.
(§2) Different skin resident bacteria were isolated from acne lesions of moderate to severe acne patients.

P. avidum S3-1 = assay: as above; format: cell-based; details: Cutibacterium avidum, S31; P. avidum S3-1, isolated from acne lesions; read-out: Minimum Inhibitory Concentration
Procedure: as §1, §2

[2] = system: Dermatobacter hominis S11-2; assay: as above; format: cell-based; details: S112; Dermatobacter hominis S11-2, isolated from acne lesions; read-out: Minimum Inhibitory Concentration
Procedure: as §1, §2

S. epidermidis S1-1 = assay: as above; format: cell-based; details: Staphylococcus epidermidis, S11; S. epidermidis S1-1, isolated from acne lesions; read-out: Minimum Inhibitory Concentration
Procedure: as §1, §2

Kocuria sp. S18-1 = assay: as above; format: cell-based; details: SP.S181; Kocuria sp. S18-1, isolated from acne lesions; read-out: Minimum Inhibitory Concentration
Procedure: as §1, §2

K. pneumoniae S6-1 = assay: as above; format: cell-based; details: Klebsiella pneumoniae, S61; K. pneumoniae S6-1, isolated from acne lesions; read-out: Minimum Inhibitory Concentration
Procedure: as §1, §2

[3] = system: Enterobacter aerogenes M2-1; assay: as above; format: cell-based; details: Klebsiella aerogenes, M21; Enterobacter aerogenes M2-1, isolated from acne lesions; read-out: Minimum Inhibitory Concentration
Procedure: as §1, §2

[4] = system: Staphylococcus haemolyticus M1-1; assay: as above; format: cell-based; details: M11; Staphylococcus haemolyticus M1-1, isolated from acne lesions; read-out: Minimum Inhibitory Concentration
Procedure: as §1, §2

Microbacterium sp. S20-2 = assay: as above; format: cell-based; details: Microbacterium sp. S20-2, isolated from acne lesions
Procedure: as §1, §2

[5] = system: skin resident bacteria isolated from acne lesions; assay: MIC, summary statements on skin resident bacteria of acne patients; format: cell-based
Text: Moreover, as the MIC values are low and within a narrow range, the chance of future resistance generation due to sub optimal drug delivery in skin is also substantially lower.
Different skin resident bacteria were isolated from acne lesions of moderate to severe acne patients. As expected, P. acnes and S. epidermidis were two most prevalent species. Members of the skin microbiomes were of diverse nature. Most of the genus were gram positive, but few of them, like Klebsiella, were gram negative. Most of them were aerobic, but few, like P. acnes, were anaerobic in nature. […] Even if they are present in low numbers in microbiomes, they can act as reservoirs of resistance against antibiotic of choice which may in the log run affect the prognosis of GNF.

[6] = Skin penetration/retention on human abdominal skin, Franz-type diffusion cells; format: in vitro ADME; details: human epidermal membranes, 12 hr, approximately 10 mg/cm^2 of approximately 1.0% formulation
Procedure: Besifloxacin gel and cream containing suspended besifloxacin were tested for skin retention study on human abdominal skin. Besifloxacin gel and cream were applied over a 12 hr application period. Heat-separated epidermal membranes from a single donor were mounted in horizontal Franz-type diffusion cells (exposed surface area 1.33 cm2) over a receptor solution of phosphate buffered saline, pH 7.4 containing 5% ethanol to facilitate solubilisation of any material penetrating the skin. Cells were maintained at 35° C. and receptor solution was stirred throughout. Formulations containing approximately 1.0% besifloxacin w/w and applied at a dose of approximately 10 mg/cm^2. The samples of the receptor solution were taken at times up to 12 hrs and extracts from surface swabs, stratum corneum tape strips and residual epidermis were obtained at the end of the experiment at 12 hrs. All samples were analysed by validated LCMS.
Besifloxacin gel containing suspended besifloxacin was tested for skin retention study on human abdominal skin. Testing procedure was similar to example 27.

[7] = system: microorganisms that cause gram-negative folliculitis; assay: MIC, summary statements on gram-negative bacteria involved in GNF; format: cell-based; details: for Activity against gram-negative bacterial strains involved in GNF (in words): irrespective of response to other conventional antibiotics or quinolones, ampicillin/cefotaxime susceptible and resistant strains
Procedure: as §1
(§3) Besifloxacin HCL was tested against ampicillin and cefotaxime (3rd generation cephalosporin) susceptible and resistant gram-negative bacterial strains involved in GNF (gram negative folliculitis) by broth dilution method as per the Clinical & Laboratory Standards Institutes (CLSI) guidelines. MIC assay was performed in 96 well plates by micro broth dilution method, in 96 well plates, all the wells were added with 100 μl of sterilized Muller Hinton broth No: 2 cation broth (HiMedia, India). The initial stock of test compounds (1 mg/ml) were prepared in dimethyl sulfoxide (DMSO) and further dilutions were made in culture broth to get the desirable concentration. Then 100 μl of broth containing test compounds were initially added to the first column's wells and then serial dilution was performed up to well of 10th column. Wells of 11th and 12th column served as a positive and negative control respectively. Finally, 100 μl of inoculum (0.5 McFarland equal bacterial suspension was 100 times diluted in culture broth) was added to all the wells. Plates were incubated at 37° C. for 18-24 hrs. After incubation, MIC of each test compound was determined by observing the lowest concentration of test compound that has no visual growth compared to growth control. Minimum inhibitory concentration of besifloxacin, ampicillin and cefotaxime against gram negative bacterial strains were shown in Table 1.

P. acnes V3-1 = assay: MIC against bacteria isolated from acne lesions, Table 2; format: cell-based, Propionibacterium acnes; details: Cutibacterium acnes, V31; P. acnes V3-1, isolated from acne lesions; read-out: Minimum Inhibitory Concentration
Procedure: as §1, §2

Blastococcus sp. S21A-2 = format: cell-based; details: Blastococcus sp. S21A-2, isolated from acne lesions
Procedure: as §1, §2

[8] = system: E. aerogenes M2-1 (clinical isolate); assay: MIC, micro broth dilution (CLSI), Table 1A; format: cell-based, Enterobacter aerogenes; details: Klebsiella aerogenes
Procedure: as §1

[9] = system: E. aerogenes NCIM 5139 (wild type); assay: MIC, micro broth dilution (CLSI), Table 1A; format: cell-based, Enterobacter aerogenes; details: Klebsiella aerogenes, NCIM5139
Procedure: as §1

Enterobacter sp. 2 = assay: MIC, micro broth dilution in Muller Hinton broth (CLSI), Table 1B; format: cell-based; details: read-out: Minimum Inhibitory Concentration
Procedure: as §3

Enterobacter sp. 523 = assay: as above; format: cell-based; details: read-out: Minimum Inhibitory Concentration
Procedure: as §3

Escherichia coli 591 = assay: as above; format: cell-based; details: read-out: Minimum Inhibitory Concentration
Procedure: as §3

Klebsiella sp. 512 = assay: as above; format: cell-based; details: read-out: Minimum Inhibitory Concentration
Procedure: as §3

Pseudomonas sp. 537 = assay: as above; format: cell-based; details: read-out: Minimum Inhibitory Concentration
Procedure: as §3

Acinetobacter sp. 488 = assay: as above; format: cell-based; details: read-out: Minimum Inhibitory Concentration
Procedure: as §3

Escherichia coli 592 = assay: as above; format: cell-based; details: read-out: Minimum Inhibitory Concentration
Procedure: as §3

Klebsiella sp. 498 = assay: as above; format: cell-based; details: read-out: Minimum Inhibitory Concentration
Procedure: as §3

Enterobacter sp. 532 = assay: as above; format: cell-based; details: read-out: Minimum Inhibitory Concentration
Procedure: as §3

Enterobacter sp. 1 = assay: as above; format: cell-based; details: read-out: Minimum Inhibitory Concentration
Procedure: as §3

Pseudomonas sp. 556 = assay: as above; format: cell-based; details: read-out: Minimum Inhibitory Concentration
Procedure: as §3

[10] = system: K. pneumoniae ATCC 13883 (wild type); assay: MIC, micro broth dilution (CLSI), Table 1A; format: cell-based; details: Klebsiella pneumoniae, ATCC13883
Procedure: as §1

[11] = system: A. haumannii ATCC 19606 (wild type); assay: MIC, micro broth dilution (CLSI), Table 1A; format: cell-based; details: Acinetobacter baumannii, ATCC19606
Procedure: as §1

[12] = system: P. aeruginosa CCARM 2204 (multi-drug resistant, quinolone susceptible); assay: MIC, micro broth dilution (CLSI), Table 1A; format: cell-based; details: Pseudomonas aeruginosa, CCARM2204
Procedure: as §1

[13] = system: E. coli ATCC BAA 196 (multi-drug resistant strain); assay: MIC, micro broth dilution (CLSI), Table 1A; format: cell-based; details: Escherichia coli, BAA196
Procedure: as §1

[14] = system: A. baumannii CCARM 12020 (multi-drug resistant, quinolone susceptible); assay: MIC, micro broth dilution (CLSI), Table 1A; format: cell-based; details: Acinetobacter baumannii, CCARM12020
Procedure: as §1

[15] = system: P. aeruginosa ATCC 27853 (wild type); assay: MIC, micro broth dilution (CLSI), Table 1A; format: cell-based; details: Pseudomonas aeruginosa, ATCC27853
Procedure: as §1

[16] = system: E. coli MTCC 1687 (wild type); assay: MIC, micro broth dilution (CLSI), Table 1A; format: cell-based; details: Escherichia coli, MTCC1687
Procedure: as §1

[17] = system: A. baumannii CCARM 12001 (Quinolone resistant strain); assay: MIC, micro broth dilution (CLSI), Table 1A; format: cell-based; details: Acinetobacter baumannii, CCARM12001
Procedure: as §1

## N[C@@H]1CCCCN(c2c(F)cc3c(=O)c(C(=O)O)cn(C4CC4)c3c2Cl)C1 [Besifloxacin]
[1]
  MIC: 0.02 µg/mL (≈ 0.0508 µM)
P. avidum S3-1
  MIC: 0.5 µg/mL (≈ 1.27 µM)
[2]
  MIC: 1 µg/mL (≈ 2.54 µM)
S. epidermidis S1-1
  MIC: 0.25 µg/mL (≈ 0.635 µM)
Kocuria sp. S18-1
  MIC: 0.5 µg/mL (≈ 1.27 µM)
K. pneumoniae S6-1
  MIC: 1 µg/mL (≈ 2.54 µM)
[3]
  MIC: 0.25 µg/mL (≈ 0.635 µM)
[4]
  MIC: 0.13 µg/mL (≈ 0.33 µM)
Microbacterium sp. S20-2
  Minimum Inhibitory Concentration: 0.5 µg/mL
[5]; Table 2 isolates
  Activity against skin resident bacteria isolated from acne lesions (in words): potent antibacterial activity
[5]; micro broth dilution assay, acne patients or healthy individuals
  isolates demonstrating resistance to besifloxacin: none
[6]
  besifloxacin recovered from receptor solution: negligible amounts
[7]
  Activity against gram-negative bacterial strains involved in GNF (in words): very effective; also recorded: efficacious
[7]; listed as besifloxacin
  Activity against gram-negative bacterial strains involved in GNF (in words): susceptible
[7]; range over strains, read-out: MIC of besifloxacin against microorganisms that cause gram-negative folliculitis
  MIC: 0.125 to 16 µg/mL
[7]; vs cefotaxime, ampicillin, clindamycin, tetracycline and erythromycin
  MIC better (lower) compared with conventional antibiotics: at least 50%
P. acnes V3-1
  MIC: 0.5 µg/mL (≈ 1.27 µM)
Blastococcus sp. S21A-2
  Minimum Inhibitory Concentration: 0.06 µg/mL
[8]
  MIC: 0.125 µg/mL (≈ 0.317 µM)
[9]
  MIC: 0.125 µg/mL (≈ 0.317 µM)
Enterobacter sp. 2
  MIC: 1 µg/mL (≈ 2.54 µM)
Enterobacter sp. 523
  MIC: 0.5 µg/mL (≈ 1.27 µM)
Escherichia coli 591
  MIC: 0.125 µg/mL (≈ 0.317 µM)
Klebsiella sp. 512
  MIC: 0.25 µg/mL (≈ 0.635 µM)
Pseudomonas sp. 537
  MIC: 1 µg/mL (≈ 2.54 µM)
Acinetobacter sp. 488
  MIC: 2 µg/mL (≈ 5.08 µM)
Escherichia coli 592
  MIC: 0.5 µg/mL (≈ 1.27 µM)
Klebsiella sp. 498
  MIC: 16 µg/mL (≈ 40.6 µM)
Enterobacter sp. 532
  MIC: 16 µg/mL (≈ 40.6 µM)
Enterobacter sp. 1
  MIC: 16 µg/mL (≈ 40.6 µM)
Pseudomonas sp. 556
  MIC: 1 µg/mL (≈ 2.54 µM)
[10]
  MIC: 0.25 µg/mL (≈ 0.635 µM)
[11]
  MIC: 1 µg/mL (≈ 2.54 µM)
[12]
  MIC: 4 µg/mL (≈ 10.2 µM)
[13]
  MIC: 1 µg/mL (≈ 2.54 µM)
[14]
  MIC: 4 µg/mL (≈ 10.2 µM)
[15]
  MIC: 0.5 µg/mL (≈ 1.27 µM)
[16]
  MIC: 0.125 µg/mL (≈ 0.317 µM)
[17]
  MIC: 2 µg/mL (≈ 5.08 µM)

## CC[C@H]1OC(=O)[C@H](C)[C@@H](O[C@H]2C[C@@](C)(OC)[C@@H](O)[C@H](C)O2)[C@H](C)[C@@H](O[C@@H]2O[C@H](C)C[C@H](N(C)C)[C@H]2O)[C@](C)(O)C[C@@H](C)C(=O)[C@H](C)[C@@H](O)[C@]1(C)O [Erythromycin]
[1]
  MIC: 0.25 µg/mL (≈ 0.341 µM)
P. avidum S3-1
  MIC: 0.06 µg/mL (≈ 0.0818 µM)
[2]
  MIC: > 4 µg/mL
S. epidermidis S1-1
  MIC: > 4 µg/mL
Kocuria sp. S18-1
  MIC: > 4 µg/mL
K. pneumoniae S6-1
  MIC: > 4 µg/mL
[3]
  MIC: > 4 µg/mL
[4]
  MIC: 0.25 µg/mL (≈ 0.341 µM)
Microbacterium sp. S20-2
  Minimum Inhibitory Concentration: 0.25 µg/mL
P. acnes V3-1
  MIC: > 150 µg/mL
Blastococcus sp. S21A-2
  Minimum Inhibitory Concentration: <0.01 µg/mL

— patent US20210393520A1, “TREATMENT OF GRAM-NEGATIVE FOLLICULITIS OR AN INFLAMMATION THEREOF WITH BESIFLOXACIN” (VYOME THERAPEUTICS LIMITED, priority 2018, published 2021)
